Where two headings read alike, the source gives them in different places.
Assays:
[1] = molecular target: T1, hDGKzeta(1-928)-N-His (DGKZ) (Homo sapiens, UniProt Q13574); assay: In vitro DGK inhibition assay (ADP-Glo, in house), DGK zeta; assay type: biochemical; settings: isomer A; 2 nM DGK ζ, 50 μM ATP, 125 μM DLG in liposomes, 1 hour reaction; read-out: DGKzeta ADP Glo assay IC50
T1 construct: hDGKzeta(1-928)-N-His; His (N)
Procedure: DGK α and ζ kinase use ATP to phosphorylate the substrate 1,2-dilauroyl-sn-glycerol (DLG, incorporated in the liposomes). ATP is converted to ADP as a result of this enzymatic reaction.
After the kinase reaction, an ATP-depletion reagent is added to terminate the kinase reaction and deplete any remaining ATP, leaving only ADP. Second, a detection reagent is added to simultaneously convert ADP to ATP and allow the newly synthesized ATP to be converted to light using a coupled luciferase/luciferin reaction.
Full length DGKA and Z were expressed in Sf21 insect cells by infecting the cells with the baculovirus stock at MOI of 2. Purification of both enzymes was performed as previously described by Takahashi et al., PeerJ, 2018 (Takahashi, D.; Sakane, F. Expression and purification of human diacylglycerolkinase alpha from baculovirus-infected insect cells for structural studies. PeerJ2018, 6, No. e5449).
A concentrated liposome solution was prepared in assay buffer without DTT and BSA: 2 mM of DLG in 21 mM of total liposome (2 mM DLG/8 mM PS/11 mM PC). The reaction mixtures contain the assay buffer with a final DLG concentration of 125 μM ATP concentrations of 25 μM (for DGKA assay) or 50 μM (for DGKZ assay). The reactions were started by addition of DGK α and ζ kinases at 4 nM and 2 nM final concentrations, respectively. After 1 hour reaction, the amount of ADP formed was detected with the ADP-Glo kinase assay (Promega) according to the manufacturer instructions. Compounds were added in 11I-points dose response, starting at 10 mM, 1:3 dilutions, with a final DMSO concentration of […]. The multidrop combi was used as a liquid handler and luminescence was read with 0.5 s by the envision reader (PE).

primary human T-cells = assay: IL2 secretion measurements in CD3-stimulated T-cells; assay type: cell-based; settings: isomer A; for EC50: CD3 antibody-stimulated T-cells, IL2 in supernatant after 24 hours, read-out: Tcell IL2 CD3 EC50; for Emax / Emax IL2 (% activation): CD3 condition, 24 hours, 20 μM reference compound A1 = 100%, DMSO neutral control; for Emax: read-out: Emax IL2 (% activation)
Procedure: As readouts for T-cell activation, IL2 secretion after 24 hours and proliferation after 5 days was measured. Increases in IL2 secretion and proliferation upon compound treatment were assessed as the % of the maximum of reference compound A1. WO 2016/139181 discloses reference compound A1 as example 70. As a counter screen and to make sure that no unwanted TCR-independent activation was triggered, PBS conditions were run for all compounds.
Expanded primary human T-cells were thawed and cultured in RPMI 1640 (Gibco, #61870-010)+5% human serum (HS, Sigma, #H3667)+1 mM Sodium Pyruvate (Gibco, #11360-039)+50 μM 2-mercaptoethanol (Gibco, #31350-010) and lx Pen-Strep (Life Technologies, #15140122) medium at density of 2 Mio/ml for 3 hours in 5% CO2, 37° C. and 95% humidity. For coating of plates, […] or PBS++ with CD3 antibody (concentration depending on donor and determined by CD3 titrations) was added 100 μl/well to Poly-D Lysine coated 96-well plates. Plates were sealed and incubated at room temperature for 3 hours on a table-top rocking platform. After incubation, plates were washed once with PBS−− and filled with 40 μl/well culture medium only. Compounds were then added (see next section) to medium only plates. After 3 hours of culturing the T-cells, cells were filtered through a cell strainer (Miltenyi Biotech, #130-041-407), counted again and concentration was adjusted to 1.25 Mio/ml.
Cells were then seeded 80 μl/well to the 40 μl/well including dispensed compounds according to plate layout. By adding cells, compounds were further diluted 1:3, and resulting in 100k cells/120 μl/well. After 24 hours 40 μl of supernatant was collected carefully from the top while not disturbing the cells and transferred into a round bottom 96 well plate. Collected and frozen supernatant was used for detection of IL2 using the IL-2 Human ProQuantum Immunoassay Kit (Invitrogen) or using the Human IL-2 ELISA Kit (Thermo Fisher).
Compounds were added in a 5 or 6 pt dose response with the Tecan D300e Digital Dispenser, all conditions 3 times more concentrated than the end-concentration, since cells are added afterwards (80 μl cells to 40 μl prepared medium with treatment). The DR was starting at 20 μM or 10 μM final top concentration and a dilution factor of 3.333. The positive control was the reference compound A1 that was added in a dose response as well, additionally to 3 wells of only 20 μM representing the positive stimulator control. All wells were normalized with DMSO to a final concentration of 0.6% (0.2% end-concentration).
The immunoassay is done following the manufacturer's manual (Invitrogen, #A35603).
Additional information: For the immunoassay, MicroAmp™ EnduraPlate™ Optical 384-Well plates are used. Frozen supernatant is thawed and centrifuged for 5 minutes at 1000×g, both steps at 4° C. After centrifugation, required sample amount is taken from the top, and in a separate LightCycler V-bottom plate (working plate) diluted with assay dilution buffer, dilution factor depending on the PBS or CD3 condition but at least 1:3. IL-2 standard and blanks are prepared in the same V-bottom plate, standard with a range of […] (extended version). After preparation, […] of sample dilutions or standard/blanks are transferred to the optical 384-well plate (assay plate) and the 10 μl reaction protocol is being followed. For measurement, the QuantStudio 12K Flex system is used. Raw data is extracted and IL-2 concentrations are calculated with the Thermo Fisher online app (apps.thermofisher.com/apps/proquantum).
ELISA is done following the manufacturer's manual (Thermo Fisher Scientific, #88-7025-88).
Additional information: For the ELISA Nunc MaxiSorp 96 well plates are used. Frozen supernatant is thawed and centrifuged for 5 minutes at 1000×g, both steps at 4° C. After that, required sample amount is taken from the top, and in a separate V-bottom plate diluted with ELISA diluent, dilution factor depending on the PBS or CD3 condition. […]

T1 sequence (Q13574 whole entry): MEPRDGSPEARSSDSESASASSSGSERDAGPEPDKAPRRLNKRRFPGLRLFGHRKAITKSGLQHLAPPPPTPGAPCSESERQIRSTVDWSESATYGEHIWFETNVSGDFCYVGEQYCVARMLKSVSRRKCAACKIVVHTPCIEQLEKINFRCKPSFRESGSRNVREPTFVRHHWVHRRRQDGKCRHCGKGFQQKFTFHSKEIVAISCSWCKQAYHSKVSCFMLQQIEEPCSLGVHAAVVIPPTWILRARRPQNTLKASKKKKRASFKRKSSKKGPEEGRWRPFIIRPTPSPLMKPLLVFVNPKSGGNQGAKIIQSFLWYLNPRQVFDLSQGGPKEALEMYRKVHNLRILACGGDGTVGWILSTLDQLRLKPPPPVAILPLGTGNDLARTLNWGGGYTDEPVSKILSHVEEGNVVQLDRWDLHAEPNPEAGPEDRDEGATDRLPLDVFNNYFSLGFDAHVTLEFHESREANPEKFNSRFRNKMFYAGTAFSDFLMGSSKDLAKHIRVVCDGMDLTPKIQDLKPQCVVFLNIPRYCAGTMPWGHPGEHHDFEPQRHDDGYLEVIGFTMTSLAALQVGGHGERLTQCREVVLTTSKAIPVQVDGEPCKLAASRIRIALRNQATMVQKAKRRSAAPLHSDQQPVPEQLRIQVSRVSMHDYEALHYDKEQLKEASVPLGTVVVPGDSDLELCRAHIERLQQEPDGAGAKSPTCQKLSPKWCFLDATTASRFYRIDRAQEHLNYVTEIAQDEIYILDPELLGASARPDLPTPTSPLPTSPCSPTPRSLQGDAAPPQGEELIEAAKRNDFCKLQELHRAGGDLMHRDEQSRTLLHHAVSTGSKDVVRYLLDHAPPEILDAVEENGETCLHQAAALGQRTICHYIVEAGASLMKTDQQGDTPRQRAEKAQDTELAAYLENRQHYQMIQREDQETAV

Row | Compound | IC50 [1] | EC50 (primary human T-cells; Homo sapiens, T-cell) | Emax (primary human T-cells; Homo sapiens, T-cell) | EC50 (primary human T-cells) | Emax IL2 (% activation) (primary human T-cells)
1 | N[C@@H]1CC(F)(F)c2cc(F)c(-c3nnc(N4CCCC4)o3)cc2N(Cc2ccc(-c3noc(C(F)(F)F)n3)cc2)C1=O (single isomer, unassigned) [Example 14] | 17900 nM | 982 nM | 239% | – | –
2 | COC(=O)N1CC2CC(c3nnc(-c4cc5c(cc4F)C(F)(F)C[C@@H](N)C(=O)N5Cc4ccc(-c5ccc(C(F)(F)F)cn5)cc4)o3)(C2)C1 (single isomer, unassigned) [Example 35] | > 19000 nM | 216 nM | 94% | – | –
3 | CC(C)(c1nnc(-c2cc3c(cc2F)C(F)(F)C[C@@H](N)C(=O)N3Cc2ccc(-n3cc(C(F)(F)F)cn3)cc2)o1)S(C)(=O)=O (single isomer, unassigned) [Example 29] | 13900 nM | > 10000 nM | 48% | – | –
4 | CC(C)(C#N)c1nnc(-c2cc3c(cc2F)C(F)(F)CC(N)C(=O)N3Cc2ccc(-n3cc(C(F)(F)F)cn3)cc2)o1 (racemic) [Example 33, 2-[5-[(3S)-3-amino-5,5,7-trifluoro-2-oxo-1-[[4-[4-(trifluoromethyl)pyrazol-1-yl]phenyl]methyl]-3,4-dihydro-1-benzazepin-8-yl]-1,3,4-oxadiazol-2-yl]-2-methyl-propanenitrile and 2-[5-[(3R)-3-amino-5,5,7-trifluoro-2-oxo-1-[[4-[4-(trifluoromethyl)pyrazol-1-yl]phenyl]methyl]-3,4-dihydro-1-benzazepin-8-yl]-1,3,4-oxadiazol-2-yl]-2-methyl-propanenitrile] | 1680 nM | 237 nM | 62% | – | –
5 | N[C@@H]1CC(F)(F)c2cc(F)c(-c3nnc(N4CCCC4)o3)cc2N(Cc2ccc(-n3cnc(C(F)(F)F)n3)cc2)C1=O (single isomer, unassigned) [Example 21] | 11800 nM | 7740 nM | 63% | – | –
6 | N[C@@H]1CC(F)(F)c2cc(F)c(-c3nnc(N4CCC(F)(F)CC4)o3)cc2N(Cc2ccc(-c3noc(C(F)(F)F)n3)cc2)C1=O (single isomer, unassigned) [Example 15] | 1810 nM | 1290 nM | 152% | – | –
7 | 2-methyl-2-[5-[(3S)-3-amino-5,5,7-trifluoro-2-oxo-1-[[4-(trifluoromethoxy)phenyl]methyl]-3,4-dihydro-1-benzazepin-8-yl]-1,3,4-oxadiazol-2-yl]propanenitrile and 2-methyl-2-[5-[(3R)-3-amino-5,5,7-trifluoro-2-oxo-1-[[4-(trifluoromethoxy)phenyl]methyl]-3,4-dihydro-1-benzazepin-8-yl]-1,3,4-oxadiazol-2-yl]propanenitrile [Example 2] | 1810 nM | – | – | 827 nM | 256 % activation
8 | N[C@@H]1CC(F)(F)c2cc(F)c(-c3nnc(N4CCC(F)(F)C4)o3)cc2N(Cc2ccc(-n3cnc(C(F)(F)F)n3)cc2)C1=O (single isomer, unassigned) [Example 22] | 17800 nM | > 2730 nM | 31% | – | –
9 | (3S)-3-amino-5,5,7-trifluoro-8-(5-morpholino-1,3,4-oxadiazol-2-yl)-1-[[4-(trifluoromethoxy)phenyl]methyl]-3,4-dihydro-1-benzazepin-2-one and (3R)-3-amino-5,5,7-trifluoro-8-(5-morpholino-1,3,4-oxadiazol-2-yl)-1-[[4-(trifluoromethoxy)phenyl]methyl]-3,4-dihydro-1-benzazepin-2-one [Example 3] | 2890 nM | – | – | > 10000 nM | 37 % activation
10 | CC(C)(c1nnc(-c2cc3c(cc2F)C(F)(F)C[C@@H](N)C(=O)N3Cc2ccc(-c3ccc(C(F)(F)F)cc3)cc2)o1)S(C)(=O)=O (single isomer, unassigned) [Example 32] | 33800 nM | 600 nM | 27% | – | –
11 | CC(C)(c1nnc(-c2cc3c(cc2F)C(F)(F)C[C@@H](N)C(=O)N3Cc2ccc(-n3cnc(C(F)(F)F)n3)cc2)o1)S(C)(=O)=O (single isomer, unassigned) [Example 23] | 15400 nM | > 2730 nM | 42% | – | –

Further lines, with some results ahead:

Row | IC50 [1] | EC50 (primary human T-cells; Homo sapiens, T-cell) | Compound | Emax (primary human T-cells; Homo sapiens, T-cell) | EC50 (primary human T-cells) | Emax IL2 (% activation) (primary human T-cells)
12 | 38800 nM | > 10000 nM | COc1ccc(-c2ccc(CN3C(=O)[C@H](N)CC(F)(F)c4cc(F)c(-c5nnc(C(C)(C)S(C)(=O)=O)o5)cc43)cc2)nc1 (single isomer, unassigned) [Example 39] | 35% | – | –
13 | 5800 nM | 2080 nM | COc1ccc(-c2ccc(CN3C(=O)[C@H](N)CC(F)(F)c4cc(F)c(-c5nnc(C(C)(C)C#N)o5)cc43)cc2)nc1 (single isomer, unassigned) [Example 38] | 105% | – | –
14 | 7240 nM | > 2730 nM | CC(C)(C#N)c1nnc(-c2cc3c(cc2F)C(F)(F)C[C@@H](N)C(=O)N3Cc2ccc(-c3ncc(C(F)(F)F)cc3F)cc2)o1 (single isomer, unassigned) [Example 19] | 63% | – | –
15 | 2900 nM | 367 nM | CC(C)(C#N)c1nnc(-c2cc3c(cc2F)C(F)(F)C[C@@H](N)C(=O)N3Cc2ccc(-c3ccc(C(F)(F)F)cn3)cc2)o1 (single isomer, unassigned) [Example 12] | 67% | – | –
16 | 2360 nM | 370 nM | COc1ccc(-c2ccc(CN3C(=O)[C@H](N)CC(F)(F)c4cc(F)c(-c5nnc(C(C)(C)C#N)o5)cc43)cc2)cc1 (single isomer, unassigned) [Example 9] | 133% | – | –
17 | 11200 nM | 678 nM | CC(C)(C#N)c1nnc(-c2cc3c(cc2F)C(F)(F)C[C@@H](N)C(=O)N3Cc2ccc(-c3ccc(C(F)(F)F)cc3)nc2)o1 (single isomer, unassigned) [Example 28] | 73% | – | –
